Here are results for nine substances from article PMC8657723, “Novel Pituitary Actions of TAC4 Gene Products in Teleost” (International Journal of Molecular Sciences, 2021).

For test [1], the system named is grass carp pituitary cells. Description: RT-qPCR of pituitary gene mRNA expression after peptide treatment of grass carp pituitary cells. Particulars: 0.1–1000 nM, 24 h. Format: cell-based, grass carp (Ctenopharyngodon idellus). From the text:
To further confirm the pituitary actions of HKs in grass carp, trypsin digestion method was used to prepare for grass carp primary cultured pituitary cells. […] After drug treatment, total RNA was extracted from adherent cells by Trizol, and then subjected to reverse transcription using HifairTM III 1st Strand cDNA Synthesis Kit (Yeasen, Shanghai, China). In the present study, β-actin was used as the internal reference gene, and then, the transcript levels of PRL, SLα, CART2, UTS1, and NMB1 were detected by using a ABI 7500 real-time PCR system (see Supplementary Table S2 for primer sequences and PCR condition). In addition, the plasmid DNA containing the gene coding sequence was serially diluted as a standard for data calibration.
In this study, RT-qPCR was used to detect mRNA expression for TAC4, NKRs, PRL, SLα, CART2, UTS1, SN2, and NMB1. In the ABI7500 software, the dynamic mRNA concentration detection range of the double standard curve is 10^5, and the correlation coefficient is >0.95. […] In the transfection experiment, the detected firefly luciferase activity was routinely normalized with the GFP activity expressed in the same well, expressed as the luciferin activity ratio Luc ratio. The data from four parallel experiments was presented as mean ± SEM in the figure. All the data were analyzed by ANOVA, and then subjected to Dunnett’s test in GraphPad Prism 7.0. The significant differences between groups were indicated by p < 0.05.
Figure 5 TAC4 gene products (HK1 and HK2) induced PRL (A) and SLα (B) mRNA expression in grass carp pituitary cells. Time course of grass carp HK1 (1 μM) and HK2 (1 μM) on PRL (A) and SLα (B) mRNA expression in grass carp pituitary cells. Dose-dependence of 24-h treatment with increasing levels of HK1 and HK2 (0.1–1000 nM) on PRL (A) and SLα (B) mRNA expression in grass carp pituitary cells. After drug treatment, the total RNA of the cells was extracted by the Trizol method, and the expression of various genes was detected by RT-PCR. Data presented were expressed as mean ± SEM, and the differences between groups were significant at p-value < 0.05 by labeling diverse letters.
Figure 6 TAC4 gene products (HK1 and HK2) induced CART2, NMB1, and UTS1 mRNA expression in grass carp pituitary cells. Time course of grass carp HK1 (1 μM) and HK2 (1 μM) on CART2 (A), NMB1 (B), and UTS1 (C) mRNA expression in grass carp pituitary cells. Dose-dependence of 24-h treatment with increasing levels of HK1 or HK2 (0.1–1000 nM) on CART2 (A), NMB1 (B), and UTS1 (C) mRNA expression in grass carp pituitary cells. After drug treatment, the total RNA of the cells was extracted by the Trizol method, and the expression of various genes were detected by RT-PCR. Data presented were expressed as mean ± SEM, and the differences between groups were significant at p-value < 0.05 by labeling diverse letters.
Figure 9 Phe to Val mutation in FXGLM motif in PRL, SLα, and UTS1 regulation by HK2 in grass carp pituitary cells. (A) Effects of HK1-V7F on PRL, SLα, and UTS1 mRNA expression in grass carp pituitary cells. In this experiment, grass carp pituitary cells were incubated for 24 h with increasing levels of HK1-V7F (0.1–1000 nM). (B) Suppressed effects of HK1 on HK2-induced PRL, SLα, and UTS1 mRNA expression in grass carp pituitary cells. Pituitary cells were challenged for 24 h with grass carp HK2 (0.1 µM) in the presence or absence of HK1 (1 µM) and HK1 (10 µM). In these experiment, Trizol method was used to extract total cell RNA, and RT-PCR was used to detect PRL, SLα, and UTS1 mRNA expression. Data presented are expressed as mean ± SEM, and the differences between groups were significant at p-value < 0.05 by labeling diverse letters.
A general note: In qPCR the cycle at which signal appears reflects the starting amount.

The test system of another test is six NKR isoforms. Description: Functional activation of the six grass carp NKR isoforms, NFAT-Luc reporter in HEK293T cells. Particulars: 24 h. In kind it is cell-based, grass carp (Ctenopharyngodon idellus). The procedure: To clarify the receptor selectivity of TAC4 gene products, a transfection experiment was conducted in HEK293T cells, and the fluorescent signal was detected by the firefly luciferase reporter gene detection kit. Firstly, the cDNA sequences of neurokinin receptor 1 isoforms a (NK1Ra), neurokinin receptor 1 isoforms b (NK1Rb), NK2R, neurokinin receptor 3 isoforms a1 (NK3Ra1), neurokinin receptor 3 isoforms a2 (NK3Ra2), and neurokinin receptor 3 isoforms b (NK3Rb) were isolated from grass carp pituitary, and the coding region of the six receptors were then subcloned into the eukaryotic expression vector pcDNA3.1. Secondly, the HEK293T cells were co-transfected with the plasmids of NFAT-Luc (Nuclear factor of activated T cells-luciferase), green fluorescent protein (GFP), and each pcDNA3.1-NKRs by using Lipofectamine 3000 (Thermo Fisher). The transfected HEK293T cells were incubated with various concentration HK-1 (1–10,000 nM), HK-2 (1–10,000 nM), or HK1-V7F (1–10,000 nM) for 24 h, respectively. Finally, the transfected cells were collected to detect the luciferase value according to the instructions of the firefly luciferase reporter gene detection kit.
To clarify the receptor selectivity of HK1 and HK2 for the six NKRs, HEK-293T cell lines were established to stably express NK1Ra, NK1Rb, NK2R, NK3Rb, NK3Ra1, or NK3Ra2 were established, respectively. The cells were then used for transfection study with NFAT-Luc vectors, which was allowed for functional evaluation of the activation status of Ca^2+-dependent pathway.
Figure 2 Receptor selectivity of HK1, HK2, and HK1-V7F. The nuclear factor of activated T-cells (NFAT)-Luc reporter together with NK1Ra, NK1Rb, NK2R, NK3Rb, NK3Ra1, or NK3Ra2, were transiently transfected into HEK-293 cells, respectively. The cells were incubated with increasing levels of grass carp HK1, HK2, or HK1-V7F (0.1–1000 nM), respectively. The luciferase activities were normalized against renilla expression in the same sample to adjust for potential variations in transfection efficiency. Each point is determined quadruplicate and is given as a mean ± SEM. The groups denoted by different letters represent significant differences at p-value < 0.05 (ANOVA followed Dunnett’s test).

Another test has as its system rats. Details: method as in 2 sources, ref 26, 51 = [26]; PMID 19854230; doi:10.1016/j.peptides.2009.10.013; 26. Yang Y. Dong S. Effects of Endokinin A/B and Endokinin C/D on the modulation of pain in mice Peptides 2010 31 94 100 10.1016/j.peptides.2009.10.013 19854230 || [51]; PMID 12524318; doi:10.1016/S0006-3495(03)74885-1; 51. Grace R.C. Chandrashekar I.R. Cowsik S.M. Solution structure of the tachyk-inin peptide eledoisin Biophys. J. 2003 84 655 664 10.1016/S0006-3495(03)74885-1 12524318 PMC1302646 ||| ref 26, 53, 54 = [26]; PMID 19854230; doi:10.1016/j.peptides.2009.10.013; 26. Yang Y. Dong S. Effects of Endokinin A/B and Endokinin C/D on the modulation of pain in mice Peptides 2010 31 94 100 10.1016/j.peptides.2009.10.013 19854230 || [53]; PMID 17655832; doi:10.1016/j.brainres.2007.05.062; 53. Naono R. Nakayama T. Ikeda T. Matsushima O. Nishimori T. Leucine at the carboxyl-terminal of endokinins C and D contributes to elicitation of the antagonistic effect on substance P in rat pain pro || [54]; PMID 17101218; doi:10.1016/j.neulet.2006.09.024; 54. Yoshioka D. Takebuchi F. Nishimori T. Naono R. Ikeda T. Nakayama T. Intrathecal administration of the common carboxyl-terminal decapeptide in end-okinin A and endokinin B evokes scratching behavio. Particulars: cited from earlier work; for effect on SP- or EKA/B-induced pain-related behaviors: simultaneous treatment; for pain-related behaviors: central administration, scratching, paw withdrawal, thermal hyperalgesia.

For another test, the system named is carp pituitary cells. The following applies: cited from earlier work; for LHβ secretion / PRL and SLα transcriptional levels / PRL secretion / SLα secretion: pituitary cells of carp. From the text: In mammals, the tachykinin (TAC) family includes three members, namely tachykinin 1 (TAC1), tachykinin 3 (TAC3) (tachykinin 2 (TAC2) in rodents), and TAC4, respectively. Among them, TAC1 gene encodes substance P (SP) and neurokinin A (NKA). SP is known to be involved in the regulation of pain control/injury, neurogenicinflammation and obesity with mammals. Compared with mammals, teleost have undergone an additional genome duplication during evolution, which is called fish-specific genome duplication (FSGD) or the 3R hypothesis. […] The resear ... || In mammals, many studies have focused on the actions of hemokinin on immunological regulation and inflammation. However, little information is available about its endocrinology function. […] Similar resu ... || (+ 1 further places)

Test [2] has as its system sexually mature female zebrafish. Particulars: intraperitoneal injection; cited from earlier work. From the text: In mammals, TAC3 encodes neurokinin B (NKB), is known to be involved in the regulation of smooth muscles of the gastrointestinal tract, secretion of intestinal epithelial fluid, vasodilation, and stimulating sperm motility. […] The resear ...
The subject of another test is carp NK2R. Details: method as in PMID 28323939. The following applies: cited from earlier work. An excerpt: In mammals, the biological action of tachykinins is mediated by three GPCRs, namely NK1R, NK2R, and NK3R, which are stimulated preferentially by SP, NKA, and NKB, respectively. […] In the present study, due to the third round whole-genome duplication, 6 NKRs were detected in grass carp, namely NK1Ra, NK1Rb, NK2R, NK3Ra1, NK3Ra2, and NK3Rb, respectively. Based on the ...

On the set-up of test [3]: method as in PMID 20233609, PMID 23317790. The following applies: cited from earlier work.

Entries after “also recorded” stand apart in the source; their conditions may differ. Ends that are not written are not given here.

Consider “TPGLQQFFGLM-NH2 [HK1-V7F, Val to Phe mutant of HK1, …-NH2]”, for which, in test [1], the “PRL mRNA expression, HK1-V7F dose-response” value was “levels comparable to that induced by HK2”; the “SLα mRNA expression, HK1-V7F dose-response” value is “levels comparable to that induced by HK2; also recorded: markedly enhanced to the levels for HK2”; the “UTS1 mRNA expression, HK1-V7F dose-response” value was “levels comparable to that induced by HK2”. In addition, the “ED50, NFAT-Luc luciferase activity, NKR isoforms (in words)” value with six NKR isoforms (HEK-293T expressing each NKR) is recorded as “nanomolar dose range”. Further, the “activation of the six NKR isoforms (in words)” value in the test on six NKR isoforms (NFAT-Luc luciferase, HEK293T, NK1Ra, NK1Rb, NK2R, NK3Ra1, NK3Ra2, NK3Rb) is on record as “notably enhanced”.
Consider “endokinin C (KKAYQLEHTFQGLL; ends and bridges not checked; UniProt Q86UU9 82-95, looked up) [EKC, human TAC4 product with FXGLL motif]”, for which, in the test with rats, the “effect on SP- or EKA/B-induced pain-related behaviors” value is listed as “can be blocked”.
In the case of “neurokinin B (DMHDFFVGLM; ends and bridges not checked; UniProt Q9UHF0 81-90, looked up) [NKB, TAC3 gene product]”, in the test on carp pituitary cells, the “pituitary PRL and SLα synthesis and secretion” value was “significantly induce pituitary PRL and SLα synthesis and secretion”. Besides, in the test on carp pituitary cells (grass carp pituitary cells), the “PRL and SLα secretion and mRNA synthesis” value was “promote PRL and SLα secretion and mRNA synthesis”; the “UTS1, CART2 and NMB1 mRNA expression” value is “could stimulate”. In addition, in test [2], the “LHβ secretion in zebrafish” value is on record as “induce LHβ secretion”.
In the case of endokinin D [EKD], the “effect on SP- or EKA/B-induced pain-related behaviors” value in the test on rats is given as “can be blocked”.
Consider “neurokinin A (HKTDSFVGLM; ends and bridges not checked; UniProt P20366 98-107, looked up) [NKA, TAC1 gene product]”, for which, in the test on carp pituitary cells, the LHβ secretion result is given as “can trigger the secretion”; the “PRL and SLα transcriptional levels” value is “increase in parallel”; the PRL secretion entry is given as “can trigger the secretion”; the SLα secretion result is “can trigger the secretion”. In the test with carp NK2R, the “activation of carp NK2R” value was “comparable efficacy and potency”.
On to neurokinin B-related peptide [NKBRP], for which the “PRL and SLα secretion and mRNA synthesis” value in the test with carp pituitary cells (grass carp pituitary cells) is “promote PRL and SLα secretion and mRNA synthesis”. In addition, the “LHβ secretion in zebrafish” value in test [2] is “induce LHβ secretion”.
Regarding “substance P (RPKPQQFFGLM; ends and bridges not checked; UniProt P20366 58-68, looked up) [SP, TAC1 gene product]”, the pain-related behaviors result in the test with rats is given as “induce pain-related behaviors”. Further, the “LHβ release, short-term treatment” value in the test on carp pituitary cells (3 h) was “induced the release of LHβ”. In the test on carp pituitary cells (24 h), the “LHβ mRNA expression, prolonged treatment” value was “inhibited LHβ mRNA expression”. In the test with carp pituitary cells, the LHβ secretion entry is “can trigger the secretion”; the “PRL and SLα transcriptional levels” value is “increase in parallel”; the PRL secretion entry was “can trigger the secretion”; the SLα secretion result was “can trigger the secretion”. Also, the “activation of carp NK2R” value in the test on carp NK2R is “comparable efficacy and potency”.
As for “EKA/B: endokinins A and B, human TAC4 products (GKASQFFGLM; ends and bridges not checked; UniProt Q86UU9 58-67, looked up)”, the pain-related behaviors entry with rats was “induce pain-related behaviors”.
In the case of neuromedin B [NMB], the “feeding and gastric peristalsis” value in test [3] is “inhibit feeding and gastric peristalsis”.
